Reference: US20040191168A1, “Tumor cell killing by cell cycle checkpoint abrogation combined with Inhibition of the classical mitogen activated protein (map) kinase pathway” (priority 2000, published 2004)
Where two headings read alike, the source gives them in different places.

Assays:
U937 cells [1] = experiment: Morphological assessment of apoptosis (Wright-Giemsa cytospins) in U937 cells; format: cell-based, human; settings: for effect on induction of apoptosis by UCN-01 and PD184352: 10 h, caspase inhibitor 20 μM; for effect on induction of apoptosis by UCN-01 and PD184352 / effect on apoptosis in PD184352/UCN-01-treated cells: UCN-01 150 nM + PD184352 10 μM; for Apoptotic cells (%): PD184352 10 μM, GFX 1 μM, safingol 2 μM, mean ± SD; for effect on apoptosis in PD184352/UCN-01-treated cells: SB203580 10 μM, CHX 1 mM
Procedure: (§1) Experimental Format. All of the experiments were performed using logarithmically growing cells (3-5×10^5 cells/ml). Cell suspensions were placed in sterile 25 cm^2 T-flasks (Corning, Corning, N.Y.) and incubated with MEK or PKC inhibitors for 30 min at 37° C. At the end of this period, UCN-01 (or in some cases, caffeine) was added to the suspension, and the flasks were placed in 37° C./5% CO2 incubator at various intervals, generally 18 h. In some studies, the p38 MAP kinase inhibitor SB203580 was added concurrently with MEK inhibitors. After drug treatment, cells were harvested and subjected to further analysis as described below.
Analysis of Apoptosis. […] For each condition, 5 to 10 randomly selected fields/condition were evaluated, encompassing at least 500 cells (Vrana and Grant, 2001). To confirm the results of morphological analysis, in some cases cells were also evaluated by TUNEL staining (Gorczyca et al., 1993) and assessment of oligonucleosomal DNA fragmentation of total DNA. DNA fragmentation was analyzed by 1.8% agarose gel electrophoresis as described previously (Jarvis et al., 1994). For TUNEL staining, cytocentrifuge preparations were obtained and fixed with 4% formaldehyde. The slides were treated with acetic acid/ethanol (1:2), stained with terminal transferase reaction mixture containing terminal transferase reaction buffer, 0.25 units/ ml terminal transferase, 2.5 mM CoCl2, and 2 pmol fluorescein-12-dUTP (Boehringer Mannheim, Indianapolis, Ind.), and visualized using fluorescence microscopy.

MAPK/ERK = experiment: p42 MAPK immune complex kinase assay in carcinoma cells; format: cell-based, human; settings: MCF7, MDA-MB-231, T47D and DU145 cells; UCN-01 150 nM; MEK1/2 inhibitors (PD98059 25 μM, PD184352 10 μM, U0126 5 μM) given with UCN-01
Procedure: Immunoprecipitations from Lysates. Fifty microliters of Protein A agarose (Ag) slurry (25 μl bead volume) was washed twice with 1 ml PBS containing 0.1% (v/v) Tween 20, and resuspended in 0.1 ml of the same buffer. Antibodies (2 μg, 20 μl), serum (20 μl) were added to each tube and incubated (3 h, 4° C.). For pre-conjugated antibodies,10 μl of slurry (4 μg antibody) was used. Clarified equal aliquots of lysates (0.25 ml, 100 μg total protein) were mixed with Ag-conjugated antibodies in duplicate using gentle agitation (2.5 h, 4° C.). Ag-antibody-antigen complexes were recovered by centrifugation, the supernatant discarded, and washed (10 min) sequentially with 0.5 ml buffer A (twice), PBS and buffer B [25 mM Hepes, pH 7.4, 0.1 mM Na3VO4].
Assay of p42^MAPK activity. Immunoprecipitates were incubated (final volume 50 μl ) with 50 μl of buffer B containing 0.2 mM [γ-^32P]ATP (5000 cpm/pmol), 1 μM Microcystin-LR, 0.5 mg/ml myelin basic protein NP), which initiated reactions at time=0. After 20 min., 40 μl of the reaction mixtures were spotted onto a 2 cm circle of P81 paper (Whatman, Maidstone, England) and immediately placed into 180 mM phosphoric acid. Papers were washed four times (10 min each) with phosphoric acid, and once with acetone, and ^32P-incorporation into MBP was quantified by liquid scintillation spectroscopy.

MDA-MB-231 cells [2] = experiment: TUNEL apoptosis in MDA-MB-231 cells; format: cell-based, human; settings: MDA-MB-231, 24 h; with 150 nM UCN-01; PD184352 10 μM, U0126 5 μM; FIG. 8A
Excerpt: (§2) Terminal Uridyl-Nucleotide End Labeling (TUNEL) for apoptosis.

MCF7 cells [3] = settings: MCF7, 24 h; with 150 nM UCN-01; PD184352 10 μM, U0126 5 μM; FIG. 8B
Procedure: Terminal Uridyl-Nucleotide End Labeling (TUNEL) for apoptosis. […] Cells were isolated 24 h after irradiation by trypsinizationi followed by centrifugation onto glass slides (cytospin). Terminal Uridyl-Nucleotide End Labeling (TUNEL) was performed on these cells as described previously [Wang et al., 1999; Park et al., 1999]. Randomly selected fields of fixed cells (150 cells per field, n=5 per slide) were counted initially using propidium iodide counter stain, followed by examination and counting of TUNEL positive staining cells of the same field under FITC/fluorescence light.

U937 cells [4] = experiment: Loss of mitochondrial membrane potential (reduced DiOC6 uptake, flow cytometry) in U937 cells; format: cell-based, human; settings: for effect on loss of ΔΨm by UCN-01 and PD184352: 10 h, caspase inhibitor 20 μM; for effect on loss of ΔΨm by UCN-01 and PD184352 / effect on mitochondrial injury (loss of ΔΨm) in PD184352/UCN-01-treated cells: UCN-01 150 nM + PD184352 10 μM; for "Low" DiOC6 (% cells): PD184352 10 μM, GFX 1 μM, safingol 2 μM, mean ± SD; for effect on mitochondrial injury (loss of ΔΨm) in PD184352/UCN-01-treated cells: SB203580 10 μM, CHX 1 mM
Procedure: as §1
Analysis of Mitochondrial Membrane Potential (ΔΨm). Cells 2×10^5 were incubated with 40 nM DiOC6 (Molecular Probes Inc., Eugene, Oreg.) in PBS at 37° C. for 20 min and then analyzed by flow cytometry as described previously (Wang et al., 1999).

[5] = test system: mammary and prostate carcinoma cells; experiment: Apoptosis by double stranded DNA breaks (TUNEL) in carcinoma cells, all cell types examined; format: cell-based, human; settings: for effect on potentiation of apoptosis by MEK1/2 inhibitor and UCN-01: carcinoma cells, 24 h, 25 μM PD98059 + 150 nM UCN-01, caspase inhibitor 20 μM
Excerpt: as §2

DU145 cells = experiment: Colony forming (clonogenic) assay in DU145 cells; format: cell-based, human; settings: 25 μM PD98059, 150 nM UCN-01, replated 48 h, ± SEM
Procedure: (§3) Colony forming (clonogenic) assay. Cells were plated 36 h prior to experimentation. Cells were pre-treated with MEK1/2 inhibitor as indicated, 2 h prior to exposure. Cells were irradiated (2 Gy). After a further 48 h, cells were isolated by tryptic digestion and single cell suspensions plated on Linbro® plates at densities of 500 cells/well and 1000 cells/well. Colony formation was defined as a colony of 50 cells or greater, 10 days after plating.

MCF7 cells [6] = experiment: Colony forming (clonogenic) assay in MCF7 cells; format: cell-based, human; settings: 25 μM PD98059, 150 nM UCN-01, replated 48 h, ± SEM
Procedure: as §3

T47D cells = experiment: Colony forming (clonogenic) assay in T47D cells; format: cell-based, human; settings: 25 μM PD98059, 150 nM UCN-01, replated 48 h, ± SEM
Procedure: as §3

MDA-MB-231 cells [7] = experiment: Colony forming (clonogenic) assay in MDA-MB-231 cells; format: cell-based, human; settings: MDA-MB-231 (MDA), 25 μM PD98059, 150 nM UCN-01, replated 48 h, ± SEM
Procedure: as §3

`N#CC(=C(/N)Sc1ccccc1N)/C(C#N)=C(\N)Sc1ccccc1N` [U0126] was tested. Which “cell death (morphological features of apoptosis) on coadministration with UCN-01” value (U937 cells [1]) did it give?
Its value is “marked potentiation of cell death”.

What about the “MAPK/ERK activity (immune complex kinase assay)” value (MAPK/ERK) of the same molecule?
Its value is “opposed”.

What about the “apoptosis in combination with UCN-01” value (MDA-MB-231 cells [2]) of the same molecule?
The value was “enhanced apoptosis”.

What about the “apoptosis in combination with UCN-01” value (MCF7 cells [3]) of the same molecule?
Its value is “enhanced apoptosis”.

Which “percentage of apoptotic cells” value (U937 cells [1]; U937 cells, 24 hr, 100 nM UCN-01, 10 μM LY294002, FIG. 14) does the source give for `O=c1cc(N2CCOCC2)oc2c(-c3ccccc3)cccc12` [LY294002] here?
The value was “about 20%”.

Which results are given for `Cn1c(=O)c2c(ncn2C)n(C)c1=O` [Caffeine]?
apoptosis in PD184352-treated cells (U937 cells [1]; U937 cells, 18 h, caffeine 2 mM with PD184352 10 μM, FIG. 4A): substantially increased; mitochondrial damage (reduction in ΔΨm) in PD184352-treated cells (U937 cells [4]; 18 h, caffeine 2 mM with PD184352 10 μM, FIG. 4A): substantially increased

Which “effect on induction of apoptosis by UCN-01 and PD184352” value (U937 cells [1]; U937 cells) does the source give for IETD here?
The value was “ineffective”.

What about the “effect on loss of ΔΨm by UCN-01 and PD184352” value (U937 cells [4]) of the same molecule?
Its value is “ineffective”.

What about the “effect on potentiation of apoptosis by MEK1/2 inhibitor and UCN-01” value [5] of the same molecule?
The value was “partially attenuated”.

Which results are given for ZVAD-fmk?
effect on induction of apoptosis by UCN-01 and PD184352 (U937 cells [1]; U937 cells): blocked; effect on loss of ΔΨm by UCN-01 and PD184352 (U937 cells [4]): blocked; effect on potentiation of apoptosis by MEK1/2 inhibitor and UCN-01 [5]: abolished

Which results are given for bisindolylmaleimide [GFX]?
Apoptotic cells (%) (U937 cells [1]; U937 cells, 18 h): 1.9 ± 0.2%; "Low" DiOC6 (% cells) (U937 cells [4]; 18 h): 13.2 ± 0.6%; apoptosis after 24 h ([5]; all carcinoma cell types examined, bisindolylmaleimide 1 μM in place of UCN-01): did not mimic the actions of UCN-01

For `CCCCCCCCCCCCCCC[C@H](O)[C@@H](N)CO` [Safingol], which “Apoptotic cells (%)” value (U937 cells [1]; U937 cells, 18 h) is on record?
Its value is 1.9 ± 0.2%.

And the “"Low" DiOC6 (% cells)” value (U937 cells [4]; 18 h)?
Its value is 13.6 ± 0.8%.

With `C[C@@H]1C[C@@H]([C@H](O)CC2CC(=O)NC(=O)C2)C(=O)[C@@H](C)C1` [CHX, cycloheximide] as the molecule, how does the “effect on apoptosis in PD184352/UCN-01-treated cells” value (U937 cells [1]; U937 cells, 18 h) read?
The value was “not attenuated”.

And the “effect on mitochondrial injury (loss of ΔΨm) in PD184352/UCN-01-treated cells” value (U937 cells [4]; 18 h)?
The value was “not attenuated”.

For `C[S+]([O-])c1ccc(-c2nc(-c3ccncc3)c(-c3ccc(F)cc3)[nH]2)cc1` (centres unmarked) [SB203580], which “effect on apoptosis in PD184352/UCN-01-treated cells” value (U937 cells [1]; U937 cells, 18 h) is on record?
Its value is “only partially attenuated”.

What about the “effect on mitochondrial injury (loss of ΔΨm) in PD184352/UCN-01-treated cells” value (U937 cells [4]; 18 h) of the same molecule?
Its value is “only partially attenuated”.

`COc1cccc(-c2cc(=O)c3ccccc3o2)c1N` [PD98059] was tested. Which “cell death (morphological features of apoptosis) on coadministration with UCN-01” value (U937 cells [1]; U937 cells, 24 h, with 200 nM UCN-01, PD98059 50 μM, U0126 20 μM (FIG. 1C, D)) did it give?
Its value is “marked potentiation of cell death”.

And the “MAPK/ERK activity (immune complex kinase assay)” value (MAPK/ERK)?
Its value is “opposed”.

What about the “clonogenic survival (colonies, normalized to control unirradiated cells = 100%)” value (DU145 cells; DU145, 2 Gy) of the same molecule?
Its value is 65 ± 2%.

What about the “clonogenic survival (colonies, normalized to control unirradiated cells = 100%)” value (DU145 cells; DU145, mock irradiated) of the same molecule?
The value was 99 ± 6%.

And the “clonogenic survival (colonies, normalized to control unirradiated cells = 100%)” value (MCF7 cells [6]; MCF7, 2 Gy)?
Its value is 39 ± 3 %.

What about the “clonogenic survival (colonies, normalized to control unirradiated cells = 100%)” value (MCF7 cells [6]; MCF7, mock irradiated) of the same molecule?
Its value is 91 ± 5%.

What about the “clonogenic survival (colonies, normalized to control unirradiated cells = 100%)” value (T47D cells; 2 Gy) of the same molecule?
Its value is 69 ± 5%.

And the “clonogenic survival (colonies, normalized to control unirradiated cells = 100%)” value (T47D cells; mock irradiated)?
The value was 97 ± 2%.

And the “clonogenic survival (colonies, normalized to control unirradiated cells = 100%)” value (MDA-MB-231 cells [7]; 2 Gy)?
The value was 44 ± 1 %.

What about the “clonogenic survival (colonies, normalized to control unirradiated cells = 100%)” value (MDA-MB-231 cells [7]; mock irradiated) of the same molecule?
Its value is 91 ± 1%.
